Broadly, the IC50 is the concentration at which inhibition is half-maximal.

SMILES strings stand for the structures.

The assay addresses T1, TGFβ R1 (Homo sapiens, UniProt P36897).
T1 sequence (P36897 34-503): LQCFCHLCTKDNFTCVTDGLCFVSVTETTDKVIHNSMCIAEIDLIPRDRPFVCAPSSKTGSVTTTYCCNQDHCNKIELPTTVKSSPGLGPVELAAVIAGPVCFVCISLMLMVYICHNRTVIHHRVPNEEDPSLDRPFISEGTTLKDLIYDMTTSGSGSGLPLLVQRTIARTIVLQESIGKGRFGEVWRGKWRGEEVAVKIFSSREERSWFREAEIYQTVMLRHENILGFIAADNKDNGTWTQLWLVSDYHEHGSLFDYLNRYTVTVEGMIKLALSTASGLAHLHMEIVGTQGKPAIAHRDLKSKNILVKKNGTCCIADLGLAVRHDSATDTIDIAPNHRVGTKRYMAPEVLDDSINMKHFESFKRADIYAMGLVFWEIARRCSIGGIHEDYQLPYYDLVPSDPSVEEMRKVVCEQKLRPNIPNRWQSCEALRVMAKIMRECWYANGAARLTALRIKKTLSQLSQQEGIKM
In words: TGFβ R1 autophosphorylation protocol (33P-ATP, phosphocellulose filter plate). Type of assay: biochemical. The note with it: 10 uM ATP, 170 nM TGFβ R1, 20 minutes at room temperature, read-out: IC50 for Kinase Inhibition. The method in brief:
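Radiometric autophosphorylation: 170 nM enzyme with compound (≤1% DMSO), 10 uM ATP plus γ-33P-ATP, […] in 20 mM MOPS pH 7, 20 min at room temperature. Reaction stopped on phosphocellulose filter, washed with H3PO4 and ethanol, counted by scintillation.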
For the compound `CC(C)c1cnc(-c2cc(Cl)ccc2F)nc1Nc1ccncc1C(=O)N[C@H](CO)[C@@H](C)O` [Compound 84, 4-[2-(5-Chloro-2-fluoro-phenyl)-5-isopropyl-pyrimidin-4-ylamino]-N-(2-hydroxy-1-hydroxymethyl-propyl)-nicotinamide], the IC50 is 1730 nM. As to `CC(C)c1cnc(-c2cc(Cl)ccc2F)nc1Nc1ccncc1C(=O)N[C@H](C(N)=O)[C@@H](C)O` [Compound 85, N-(1-Carbamoyl-2-hydroxy-propyl)-4-[2-(5-chloro-2-fluoro-phenyl)-5-isopropyl-pyrimidin-4-ylamino]-nicotinamide], the IC50 turned out to be 3960 nM. As to `COc1cnc(-c2cc(Cl)ccc2F)nc1Nc1ccncc1C(=O)NC1CN(C(=O)OC(C)(C)C)C1` [Compound 86, 3-({4-[2-(5-Chloro-2-fluoro-phenyl)-5-methoxy-pyrimidin-4-ylamino]-pyridine-3-carbonyl}-amino)-azetidine-1-carboxylic acid tert-butyl ester], the half-inhibitory concentration (IC50) came to 310 nM. With `COc1cnc(-c2cc(Cl)ccc2F)nc1Nc1ccncc1C(=O)NC1CNC1` [Compound 87, N-Azetidin-3-yl-4-[2-(5-chloro-2-fluoro-phenyl)-5-methoxy-pyrimidin-4-ylamino]-nicotinamide], the IC50 came to 50 nM. With `COC(=O)[C@H]1C[C@@H](NC(=O)c2cnccc2Nc2nc(-c3cc(Cl)ccc3F)ncc2OC)CN1C(=O)OC(C)(C)C` [Compound 88, 4-({4-[2-(5-Chloro-2-fluoro-phenyl)-5-methoxy-pyrimidin-4-ylamino]-pyridine-3-carbonyl}-amino)-pyrrolidine-1,2-dicarboxylic acid 1-tert-butyl ester 2-methyl ester], the IC50 stood at 14100 nM. The result for `COC(=O)[C@H]1C[C@@H](NC(=O)c2cnccc2Nc2nc(-c3cc(Cl)ccc3F)ncc2OC)CN1` [Compound 89, 4-({4-[2-(5-Chloro-2-fluoro-phenyl)-5-methoxy-pyrimidin-4-ylamino]-pyridine-3-carbonyl}-amino)-pyrrolidine-2-carboxylic acid methyl ester] reads 190 nM; that for `NC(=O)c1cnccc1Nc1nc(-c2cc(Cl)ccc2F)ncc1Cl` [Compound 91, 4-[5-Chloro-2-(5-chloro-2-fluoro-phenyl)-pyrimidin-4-ylamino]-nicotinamide], 200 nM; that for `O=C(NC1CC1)c1cnccc1Nc1nc(-c2cc(Cl)ccc2F)ncc1Cl` [Compound 92, 4-[5-Chloro-2-(5-chloro-2-fluoro-phenyl)-pyrimidin-4-ylamino]-N-cyclopropyl-nicotinamide], 130 nM. For `CNC(=O)c1cnccc1Nc1nc(-c2cc(Cl)ccc2F)ncc1Br` [Compound 93, 4-[5-Bromo-2-(5-chloro-2-fluoro-phenyl)-pyrimidin-4-ylamino]-N-methyl-nicotinamide], the IC50 worked out at 30 nM. Regarding `COc1cnc(-c2cc(Cl)ccc2F)nc1Nc1ccncc1C(=O)NCCCNC(C)=O` [Compound 94, N-(3-Acetylamino-propyl)-4-[2-(5-chloro-2-fluoro-phenyl)-5-methoxy-pyrimidin-4-ylamino]-nicotinamide], the IC50 worked out at 1340 nM. `COc1cnc(-c2cc(Cl)ccc2F)nc1Nc1ccncc1C(=O)NCCCNC(=O)C(C)C` [Compound 95, 4-[2-(5-Chloro-2-fluoro-phenyl)-5-methoxy-pyrimidin-4-ylamino]-N-(3-isobutylylamino-propyl)-nicotinamide]: the IC50 stood at 170 nM. Regarding `COC[C@H]1OC(CCNCCCNC(=O)c2cnccc2Nc2nc(-c3cc(Cl)ccc3F)ncc2OC)[C@@H](OC)[C@@H](OC)[C@@H]1OC` (stereo partly shown) [Compound 96, 4-[2-(5-Chloro-2-fluoro-phenyl)-5-methoxy-pyrimidin-4-ylamino]-N-(3-[2-(3,4,5-trimethoxy-6-methoxymethyl-tetrahydro-pyran-2-yl)-ethylamino]-propyl)-nicotinamide], the IC50 is 70 nM. The same measure for `COc1cnc(-c2cc(Cl)ccc2F)nc1Nc1ccncc1C(=O)NCCCNCCC1O[C@H](COC(C)=O)[C@@H](OC(C)=O)[C@H](OC(C)=O)[C@H]1OC(C)=O` (stereo partly shown) [Compound 97, Acetic acid 3,4,5-triacetoxy-6-{2-[3-({4-[2-(5-chloro-2-fluoro-phenyl)-5-methoxy-pyrimidin-4-ylamino]-pyridine-3-carbonyl}-amino)-propylamino]-ethyl}-tetrahydro-pyran-2-ylmethyl ester]: 90 nM. With `COc1cnc(-c2cc(Cl)ccc2F)nc1Nc1ccncc1C(=O)NCCCNCCC1O[C@H](COCc2ccccc2)[C@@H](OCc2ccccc2)[C@H](OCc2ccccc2)[C@H]1OCc1ccccc1` (stereo partly shown) [Compound 99, 4-[2-(5-Chloro-2-fluoro-phenyl)-5-methoxy-pyrimidin-4-ylamino]-N-{3-[2-(3,4,5-tris-benzyloxy-6-benzyloxymethyl-tetrahydro-pyran-2-yl)-ethylamino]-propyl}-nicotinamide], the IC50 amounted to 610 nM.

For the compound `COc1cnc(-c2cc(Cl)ccc2F)nc1Nc1ccncc1C(=O)NCCCN` [Compound 100, N-(3-Amino-propyl)-4-[2-(5-chloro-2-fluoro-phenyl)-5-methoxy-pyrimidin-4-ylamino]-nicotinamide], the IC50 is 30 nM. The result for `COc1cnc(-c2cc(Cl)ccc2F)nc1Nc1ccncc1C(=O)NCCCNCC(F)(F)C(F)(F)F` [Compound 101, 4-[2-(5-Chloro-2-fluoro-phenyl)-5-methoxy-pyrimidin-4-ylamino]-N-[3-(2,2,3,3,3-pentafluoro-propylamino)-propyl]-nicotinamide] reads 140 nM; that for `COc1cnc(-c2cc(Cl)ccc2F)nc1Nc1ccncc1C(=O)NCCNCC(F)(F)C(F)(F)F` [Compound 102, 4-[2-(5-Chloro-2-fluoro-phenyl)-5-methoxy-pyrimidin-4-ylamino]-N-[2-(2,2,3,3,3-pentafluoro-propylamino)-ethyl]-nicotinamide], 70 nM; that for `COc1cnc(-c2cc(Cl)ccc2F)nc1Nc1ccncc1C(=O)NCCNCC(F)(F)F` [Compound 103, 4-[2-(5-Chloro-2-fluoro-phenyl)-5-methoxy-pyrimidin-4-ylamino]-N-[2-(2,2,2-trifluoro-ethylamino)-ethyl]-nicotinamide], 130 nM. As to `COc1cnc(-c2cc(Cl)ccc2F)nc1Nc1ccncc1C(=O)NCCOCCO` [Compound 104, 4-[2-(5-Chloro-2-fluoro-phenyl)-5-methoxy-pyrimidin-4-ylamino]-N-[2-(2-hydroxy-ethoxy)-ethyl]-nicotinamide], the IC50 amounted to 310 nM. Consider `COc1cnc(-c2cc(Cl)ccc2F)nc1Nc1ccncc1C(=O)NCC1CN(C(=O)OC(C)(C)C)C1` [Compound 105], for which the IC50 came out at 240 nM. As to `COc1cnc(-c2cc(Cl)ccc2F)nc1Nc1ccncc1C(=O)N[C@@H]1C[C@H](C(=O)N(C)C)N(C(=O)OC(C)(C)C)C1` [Compound 106, 4-({4-[2-(5-Chloro-2-fluoro-phenyl)-5-methoxy-pyrimidin-4-ylamino]-pyridine-3-carbonyl}-amino)-2-dimethyl carbamoyl-pyrrolidine-1-carboxylic acid tert-butyl ester], the IC50 was determined as 4810 nM. As for `COc1cnc(-c2cc(Cl)ccc2F)nc1Nc1ccncc1C(=O)N[C@H]1CN[C@@H](C(=O)N(C)C)C1` [Compound 107, 4-[2-(5-Chloro-2-fluoro-phenyl)-5-methoxy-pyrimidin-4-ylamino]-N-(5-dimethylcarbamoyl-pyrrolidin-3-yl)-nicotinamide], the IC50 was 90 nM. The same measure for `O=C(NC1CC1)c1cnccc1Nc1nc(-c2cc(Cl)ccc2F)ncc1Br` [Compound 108, 4-[5-Bromo-2-(5-chloro-2-fluoro-phenyl)-pyrimidin-4-ylamino]-N-cyclopropyl-nicotinamide]: 2500 nM; for `COc1cnc(-c2cc(Cl)ccc2F)nc1Nc1ccncc1C(=O)NCCCN1CC[C@H](O)C1` [Compound 109, 4-[2-(5-Chloro-2-fluoro-phenyl)-5-methoxy-pyrimidin-4-ylamino]-N-[3-(3-hydroxy-pyrolidin-1-yl)-propyl]-nicotinamide]: 330 nM.

On to `CC(C)c1cnc(-c2cc(Cl)ccc2F)nc1Nc1ccncc1C(=O)NC1CNC1` [Compound 111, N-Azetidin-3-yl-4-[2-(5-chloro-2-fluoro-phenyl)-5-isopropyl-pyrimidin-4-ylamino]-nicotinamide], for which the IC50 was determined as 20 nM. The result for `COc1cnc(-c2cc(Cl)ccc2F)nc1Nc1ccncc1C(=O)NCCNCC(C)(C)O` [Compound 112, 4-[2-(5-Chloro-2-fluoro-phenyl)-5-methoxy-pyrimidin-4-ylamino]-N-[2-(2-hydroxy-2-methyl-propylamino)-ethyl]-nicotinamide] reads 90 nM. In the case of `CC(C)c1cnc(-c2cc(Cl)ccc2F)nc1Nc1ccncc1C(=O)NCCCN1CC[C@@H](O)C1` [Compound 113, 4-[2-(5-Chloro-2-fluoro-phenyl)-5-isopropyl-pyrimidin-4-ylamino]-N-[3-(3-hydroxy-pyrrolidin-1-yl)-propyl]-nicotinamide], the IC50 was 40 nM. For `COc1cnc(-c2cc(Cl)ccc2F)nc1Nc1cc[n+]([O-])cc1C(=O)NC1CC1` [Compound 114, 4-[2-(5-Chloro-2-fluoro-phenyl)-5-methoxy-pyrimidin-4-ylamino]-N-cyclopropyl-1-oxy-nicotinamide], the IC50 was 3080 nM.

The values are drawn from patent US20060281763A1, “Carboxamide inhibitors of TGFbeta” (priority 2005, published 2006).
